In patent publication US8288433B2, “Diazeniumdiolate compounds, a process for their preparation and pharmaceutical compositions containing them” (Les Laboratoires Servier, priority 2007, dated 2012):
One block for each compound: values may come before it.

Assays:
[1] = test system: conscious Wistar rats; experiment: Diuretic effect in vivo, urine volume in conscious rats; settings: oral dose of 10 mg/kg, urine volume after 6 hours, relative to control group
Protocol: The diuretic effect is tested on conscious Wistar rats. The animals are subjected to fasting for 18 h before the experiment and put on a diet of water 90 minutes before the experiment. The product under test is then administered orally by force-feeding, the rat is placed in a metabolism cage and the volume of urine is measured after 6 hours. The volume is expressed in relation to the volume measured in a control group of rats.

[2] = test system: Aorta rings without endothelium; experiment: NO-donor activity in vitro, relaxation of noradrenaline-contracted aorta rings; settings: aorta rings without endothelium contracted by noradrenaline (0.1-0.3 μM); read-out: IC50 (relaxant effect)
Protocol: Aorta rings without endothelium are used. After a first contraction induced by 60 mM KCl to characterise the sensitivity of the ring, and washing, a stable contraction is induced by noradrenaline (0.1-0.3 μM) in the presence or absence of ODQ. A cumulative concentration series is applied and the activity of the product under test is calculated by an IC50 (dose that inhibits the maximum effect by 50%).

[3] = test system: SD rats anaesthetised with pentobarbital; experiment: NO-donor activity in vivo, reduction of arterial pressure in anaesthetised rats; settings: i.v. dose of 100 μg/kg
Protocol: The NO-donor effect of the compound is evaluated by the reduction in pressure caused in SD rats anaesthetised with pentobarbital. After stabilisation of the arterial pressure, the product under test is administered i.v. in increasing doses.

SMILES: CCN(CC)/[N+]([O-])=N/OCOC(=O)c1cccc(CNS(=O)(=O)c2cc(C(=O)NN3c4ccc([N+](=O)[O-])cc4CC3C)ccc2Cl)c1 (stereo not drawn) [Example 1]
increase of the excretion of urine [1]: 108%
IC50 [2]: 120 nM
reduction of the arterial pressure [3]: 56%

IC50 [2]: 40 nM
SMILES: CCN(CC)/[N+]([O-])=N/OCOC(=O)c1ccc(CNS(=O)(=O)c2cc(C(=O)NN3c4ccccc4C[C@H]3C)ccc2Cl)cc1 [Example 10, ({[(1Z)-2,2-diethyl-1-oxidohydrazono]amino}oxy)methyl 4-({[(2-chloro-5-{[(2R)-2-methyl-2,3-dihydro-1H-indol-1-yl]carbamoyl}phenyl)-sulphonyl]amino}methyl)benzoate]
increase of the excretion of urine [1]: 248%
reduction of the arterial pressure [3]: 55%
